Experimental data: US12491180B2, “Application of compound in treating pneumonia” (SHENZHEN OPTIMUM BIOLOGICAL TECHNOLOGY CO., LTD., priority 2019, dated 2025)
In brackets after ≈: the same amount, converted by molar mass.

What was measured:
E. ae 14186 = assay: MIC, solid dilution method; assay type: cell-based, Enterobacter aerogenes; conditions: Klebsiella aerogenes; E. ae 14186; MHA agar, 37° C., 16-20 hours; read-out: MIC
Method: (§1) The above-mentioned glycerol-preserved strains were taken out from the −80° C. refrigerator, streaked and inoculated on MHA plates, labeled, and cultured overnight in a 37° C. incubator.
(§2) The inoculum was prepared directly from bacterial suspension, and several recovered colonies were picked and directly prepared into a bacterial suspension with a turbidity of No. 0.5 McFarland units in normal saline, and a 10-fold dilution was made during inoculation.
(§3) 6 bottles of MHA culture medium 500 mL/bottle were prepared, and the pH was adjusted to 7.2-7.4, sterilized at 121° C. for 15 min, and the medium was placed in a 55° C. water bath to keep warm.
(§4) Sterile blank petri dishes were taken, and marked with each FL drug/concentration according to 2-fold dilution, and 10 concentrations of each drug starting from 8 μg/mL were tested.
(§5) […]; 20 mL was aspirated and added to a petri dish consistent with the mark, and then 20 mL of MHA culture medium was added to the rest of the drug-containing culture medium, mixed evenly, that is, the 2-fold diluted drug-containing culture medium; 20 mL was aspirated and added to the petri dish consistent with the mark, and then diluted to the 10th concentration and the […] respectively by repeating the above-mentioned steps, and then poured into the petri dish.
(§6) 4 bacterial control petri dishes without drug were prepared at the same time as a control.
(§7) The positioning needle and the inoculation needle were installed according to the order of placement of the colony on the inoculation plate. After inoculation, a bacterial solution circle was formed on the petri dish. After the bacterial solution was absorbed by the agar, the petri dish was placed in an incubator at 37° C. for overnight incubation (16-20 hours), and then taken out.
(§8) The minimum inhibitory concentrations of the compounds against the CRE and CSE strains were determined by the solid dilution method, and the results are shown in Tables 3 and 4.

[1] = test system: Klebsiella pneumoniae 11544; assay: MIC, solid dilution method; assay type: cell-based; conditions: K.p 11544, CRE clinical isolate, MHA agar, 37° C., 16-20 hours, read-out: MIC
Method: (§9) (2) Clinical isolated strains: CRE Klebsiella pneumoniae 5846, 11544, 12559, 13249 and CSE Klebsiella pneumoniae 8733, a total of 5 strains;
as §1, §2, §3, §4, §5, §6, §7, §8

[2] = test system: Klebsiella pneumoniae 13249; assay: MIC, solid dilution method; assay type: cell-based; conditions: K.p 13249, CRE clinical isolate, MHA agar, 37° C., 16-20 hours, read-out: MIC
Method: as §9, §1, §2, §3, §4, §5, §6, §7, §8

[3] = test system: Klebsiella pneumoniae 12559; assay: MIC, solid dilution method; assay type: cell-based; conditions: K.p 12559, CRE clinical isolate, MHA agar, 37° C., 16-20 hours, read-out: MIC
Method: as §9, §1, §2, §3, §4, §5, §6, §7, §8

[4] = test system: Klebsiella pneumoniae 5846; assay: MIC, solid dilution method; assay type: cell-based; conditions: K.p 5846, CRE clinical isolate, MHA agar, 37° C., 16-20 hours, read-out: MIC
Method: as §9, §1, §2, §3, §4, §5, §6, §7, §8

[5] = test system: Klebsiella pneumoniae 8733; assay: MIC, solid dilution method; assay type: cell-based; conditions: K.p 8733, CSE clinical isolate, MHA agar, 37° C., 16-20 hours, read-out: MIC
Method: as §9, §1, §2, §3, §4, §5, §6, §7, §8

[6] = test system: Enterobacter aerogenes 8193; assay: MIC, solid dilution method; assay type: cell-based; conditions: Klebsiella aerogenes; E. ae 8193, CRE clinical isolate; MHA agar, 37° C., 16-20 hours; read-out: MIC
Method: CRE Enterobacter aerogenes 8193, a total of 1 strain;
as §1, §2, §3, §4, §5, §6, §7, §8

16 clinical CRE strains = assay: MIC50, MIC90 and MIC range against 16 clinical CRE strains; assay type: cell-based; conditions: 16 clinical CRE strains; for MIC50: read-out: MIC50; for MIC90: read-out: MIC90
Method: as §1, §2, §3, §4, §5, §6, §7, §8

[7] = test system: Enterobacter cloacae 11699; assay: MIC, solid dilution method; assay type: cell-based; conditions: E. cl 11699, CSE clinical isolate, MHA agar, 37° C., 16-20 hours, read-out: MIC
Method: as §1, §2, §4, §6, §7

[8] = test system: Enterobacter cloacae 14653; assay: MIC, solid dilution method; assay type: cell-based; conditions: E. cl 14653, CRE clinical isolate, MHA agar, 37° C., 16-20 hours, read-out: MIC
Method: as §1, §2, §4, §6, §7

[9] = test system: Enterobacter cloacae 11090; assay: MIC, solid dilution method; assay type: cell-based; conditions: E. cl 11090, CRE clinical isolate, MHA agar, 37° C., 16-20 hours, read-out: MIC
Method: as §1, §2, §4, §6, §7

Klebsiella oxytoca 6777 = assay: MIC, solid dilution method; assay type: cell-based; conditions: K. ox 6777, CRE clinical isolate, MHA agar, 37° C., 16-20 hours, read-out: MIC
Method: as §1, §2, §3, §4, §5, §6, §7, §8

Escherichia coli 14828 = assay: MIC, solid dilution method; assay type: cell-based; conditions: E. coli 14828, CRE clinical isolate, MHA agar, 37° C., 16-20 hours, read-out: MIC
Method: as §1, §2, §3, §4, §5, §6, §7, §8

Escherichia coli 13897 = assay: MIC, solid dilution method; assay type: cell-based; conditions: E. coli 13897, CRE clinical isolate, MHA agar, 37° C., 16-20 hours, read-out: MIC
Method: as §1, §2, §3, §4, §5, §6, §7, §8

[10] = test system: Citrobacter freundii 9434; assay: MIC, solid dilution method; assay type: cell-based; conditions: C.f 9434, CRE clinical isolate, MHA agar, 37° C., 16-20 hours, read-out: MIC
Method: (§10) CRE Citrobacter freundii 9434, 9484 and CSE Citrobacter freundii 7646, a total of 3 strains;
as §1, §2, §3, §4, §5, §6, §7, §8

[11] = test system: Citrobacter freundii 9484; assay: MIC, solid dilution method; assay type: cell-based; conditions: C.f 9484, CRE clinical isolate, MHA agar, 37° C., 16-20 hours, read-out: MIC
Method: as §10, §1, §2, §3, §4, §5, §6, §7, §8

[12] = test system: Citrobacter freundii 7646; assay: MIC, solid dilution method; assay type: cell-based; conditions: C.f 7646, CSE clinical isolate, MHA agar, 37° C., 16-20 hours, read-out: MIC
Method: as §10, §1, §2, §3, §4, §5, §6, §7, §8

[13] = test system: Klebsiella pneumoniae BAA-1705; assay: MIC, solid dilution method; assay type: cell-based; conditions: BAA1705, K.p BAA-1705, standard strain, MHA agar, 37° C., 16-20 hours, read-out: MIC
Method: (§11) (1) Standard strains: Escherichia coli BAA-2452, Escherichia coli ATCC25922, Klebsiella pneumoniae BAA-1705; all purchased from ATCC.
as §1, §2, §3, §4, §5, §6, §7, §8

[14] = test system: Escherichia coli ATCC25922; assay: MIC, solid dilution method; assay type: cell-based; conditions: E. coli ATCC25922, standard strain, MHA agar, 37° C., 16-20 hours, read-out: MIC
Method: as §11, §1, §2, §3, §4, §5, §6, §7, §8

[15] = test system: Escherichia coli BAA-2452; assay: MIC, solid dilution method; assay type: cell-based; conditions: BAA2452, E. coli BAA-2452, standard strain, MHA agar, 37° C., 16-20 hours, read-out: MIC
Method: as §11, §1, §2, §3, §4, §5, §6, §7, §8

SMILES | MIC (E. ae 14186) [µg/mL] | MIC [1] [µg/mL] | MIC [2] [µg/mL] | MIC [3] [µg/mL] | MIC [4] [µg/mL] | MIC [5] [µg/mL] | MIC [6] [µg/mL] | MIC50 (16 clinical CRE strains) [µg/mL] | MIC90 (16 clinical CRE strains) [µg/mL] | MIC [7] [µg/mL] | MIC [8] [µg/mL] | MIC [9] [µg/mL] | MIC (Klebsiella oxytoca 6777) [µg/mL] | MIC (Escherichia coli 14828) [µg/mL] | MIC (Escherichia coli 13897) [µg/mL] | MIC [10] [µg/mL] | MIC [11] [µg/mL] | MIC [12] [µg/mL] | MIC [13] [µg/mL] | MIC [14] [µg/mL] | also measured
CC1(C)[C@H](NC(=O)/C(=N\O[C@@H](COc2ccc(C(=N)N[C@@H]3CCCNC3)cc2)C(=O)O)c2csc(N)n2)C(=O)N1OS(=O)(=O)O [AIC499, reference compound] | 1 (≈ 1.5 µM) | > 8 | > 8 | 0.5 (≈ 0.748 µM) | 0.25 (≈ 0.374 µM) | 0.25 (≈ 0.374 µM) | 1 (≈ 1.5 µM) | 2 (≈ 2.99 µM) | > 8 | 0.06 (≈ 0.0897 µM) | 1 (≈ 1.5 µM) | 2 (≈ 2.99 µM) | 0.5 (≈ 0.748 µM) | 0.5 (≈ 0.748 µM) | 0.25 (≈ 0.374 µM) | 0.5 (≈ 0.748 µM) | 0.25 (≈ 0.374 µM) | 0.5 (≈ 0.748 µM) | 1 (≈ 1.5 µM) | 0.03 (≈ 0.0449 µM) | MIC [15]: 0.5 µg/mL (≈ 0.748 µM)
CC1(C)[C@H](NC(=O)/C(=N\O[C@@H](COc2ccc3c(c2)CN(C(=N)N(CCCN)CCCN)C3)C(=O)O)c2csc(N)n2)C(=O)N1OS(=O)(=O)O [Compound 32] | 0.125 (≈ 0.169 µM) | 2 (≈ 2.7 µM) | 4 (≈ 5.4 µM) | 0.125 (≈ 0.169 µM) | 0.06 (≈ 0.081 µM) | 0.06 (≈ 0.081 µM) | 0.5 (≈ 0.675 µM) | 0.125 (≈ 0.169 µM) | 4 (≈ 5.4 µM) | 0.03 (≈ 0.0405 µM) | 0.25 (≈ 0.337 µM) | 0.5 (≈ 0.675 µM) | 0.125 (≈ 0.169 µM) | 0.06 (≈ 0.081 µM) | 0.06 (≈ 0.081 µM) | 0.06 (≈ 0.081 µM) | 0.03 (≈ 0.0405 µM) | 0.06 (≈ 0.081 µM) | 0.125 (≈ 0.169 µM) | < 0.015 | MIC range (16 clinical CRE strains): 0.06 to 4 µg/mL; MIC [15]: 0.25 µg/mL (≈ 0.337 µM)
CC1(C)[C@H](NC(=O)/C(=N\O[C@@H](COc2ccc3c(c2)CN(C(=N)N[C@@H]2CCCNC2)C3)C(=O)O)c2csc(N)n2)C(=O)N1OS(=O)(=O)O [Compound 41] | 0.25 (≈ 0.352 µM) | > 8 | > 8 | 0.125 (≈ 0.176 µM) | 0.125 (≈ 0.176 µM) | 0.125 (≈ 0.176 µM) | 0.5 (≈ 0.704 µM) | 1 (≈ 1.41 µM) | > 8 | 0.06 (≈ 0.0845 µM) | 0.5 (≈ 0.704 µM) | 1 (≈ 1.41 µM) | 0.25 (≈ 0.352 µM) | 0.125 (≈ 0.176 µM) | 0.06 (≈ 0.0845 µM) | 0.125 (≈ 0.176 µM) | 0.06 (≈ 0.0845 µM) | 0.125 (≈ 0.176 µM) | 0.25 (≈ 0.352 µM) | < 0.015 | MIC [15]: 0.25 µg/mL (≈ 0.352 µM)
